Results on 29 compounds are retold here after ChEMBL document CHEMBL5726766, “Sulfonamide compounds as voltage-gated sodium channel modulators” (2019).

A short description of this test: Membrane potential dye assay: HEK-293 cells overexpressing the channel of interest were seeded in a 96-well plate at a density of 30000 cells/well and incubated at 37° C./5% CO2 for 48 hr. The assay was carried out using the Red Membrane Potential Dye (Molecular Devices) following the manufacturer's instructions. Briefly, the cells were incubated with 1× red membrane potential dye for 1.5 hour. The cells were then treated with various concentrations of the test compounds for 15-20 min followed by depolarization with 10-30 μM Veratridine. The fluorescence was read following excitation at 510-545 nm and emission at 565-625 nm in FLIPR. The “max-min” fluorescence values were used to calculate the % inhibition. The settings on record: HEK293.
In the case of `O=S(=O)(Nc1ccncn1)c1ccc2c(c1)OCC[C@@H]2c1ccc(C(F)(F)F)cc1-c1ccc(F)cc1`, the IC50 is over 10 µM.

As for `O=S(=O)(Nc1ncc(F)cn1)c1ccc2c(c1)OCC[C@@H]2c1ccc(C(F)(F)F)cc1-c1ccc(F)cc1`, the IC50 is over 10 µM.

As for `O=S(=O)(Nc1ncc(F)cn1)c1ccc2c(c1)OCC[C@@H]2c1ccc(C(F)(F)F)cc1-c1ccc(F)nc1`, the half-maximal inhibitory concentration (IC50) was over 10 µM.

For the compound `Cn1nccc1-c1cc(C(F)(F)F)ccc1[C@H]1CCOc2cc(S(=O)(=O)Nc3cnccn3)ccc21`, the IC50 was over 10 µM.

As to `Cn1nccc1-c1cc(C(F)(F)F)ccc1[C@H]1CCOc2cc(S(=O)(=O)Nc3ccncn3)ccc21`, the IC50 was over 10 µM.

In the case of `O=S(=O)(Nc1ncccn1)c1ccc2c(c1)OCC[C@@H]2c1ccc(C(F)(F)F)cc1-n1ccnn1`, the IC50 is over 10 µM.

For `Cn1nccc1-c1cc(C(F)(F)F)ccc1[C@H]1CCOc2cc(S(=O)(=O)Nc3cccnc3F)ccc21`, the IC50 is over 10 µM.

As to `O=S(=O)(Nc1cccc(F)n1)c1ccc2c(c1)OCC[C@H]2c1ccc(C(F)(F)F)cc1-c1ccc(F)cc1`, the IC50 is over 10 µM.

`O=S(=O)(Nc1ncccn1)c1ccc2c(c1)OCC[C@H]2c1ccc(C(F)(F)F)cc1-n1ccnn1`: the IC50 is over 10 µM.

Regarding `CC(C)Oc1cccc(NS(=O)(=O)c2ccc3c(c2)OCC[C@@H]3c2ccc(C(F)(F)F)cc2-c2ccnn2C)n1`, the IC50 was over 10 µM.

Turning to `Cn1nccc1-c1cc(C(F)(F)F)ccc1[C@H]1CCOc2cc(S(=O)(=O)Nc3ncccc3F)ccc21`, the IC50 was over 10 µM.

As for `Cn1nccc1-c1cc(Cl)ccc1[C@@H]1CCOc2cc(S(=O)(=O)Nc3cccc(F)n3)ccc21`, the IC50 is over 10 µM.

Consider `Cc1ccnc(NS(=O)(=O)c2ccc3c(c2)OCC[C@H]3c2ccc(C(F)(F)F)cc2-c2ccnn2C)n1`, for which the IC50 is over 10 µM.

Consider `O=S(=O)(Nc1ncc(F)cn1)c1ccc2c(c1)OCC[C@H]2c1ccc(C(F)(F)F)cc1-c1ccc(F)cc1`, for which the IC50 was over 10 µM.

With `Cc1ccnc(NS(=O)(=O)c2ccc3c(c2)OCC[C@@H]3c2ccc(C(F)(F)F)cc2-c2ccnn2C)n1`, the IC50 is over 10 µM.

For `Cn1nccc1-c1cc(Cl)ccc1[C@H]1CCOc2cc(S(=O)(=O)Nc3cccc(F)n3)ccc21`, the IC50 is over 10 µM.

With `CC(C)Oc1ccc([C@@H]2CCOc3cc(S(=O)(=O)Nc4cccc(F)n4)ccc32)c(-c2ccnn2C)c1`, the IC50 was over 10 µM.

In the case of `O=S(=O)(Nc1ncc(F)cn1)c1ccc2c(c1)OCC[C@H]2c1ccc(C(F)(F)F)cc1-c1ccc(F)nc1`, the IC50 is over 10 µM.

As for `Cn1nccc1-c1cc(C(F)(F)F)ccc1[C@@H]1CCOc2cc(S(=O)(=O)Nc3cnccn3)ccc21`, the IC50 was over 10 µM.

As for `O=S(=O)(Nc1cccnn1)c1ccc2c(c1)OCC[C@@H]2c1ccc(C(F)(F)F)cc1-n1ccnn1`, the IC50 was over 10 µM.

Consider `Cn1nccc1-c1cc(C(F)(F)F)ccc1[C@@H]1CCOc2cc(S(=O)(=O)Nc3cccnc3F)ccc21`, for which the IC50 is over 10 µM.

With `O=S(=O)(Nc1cccnn1)c1ccc2c(c1)OCC[C@H]2c1ccc(C(F)(F)F)cc1-c1ccc(F)nc1`, the IC50 was over 10 µM.

As to `CC(C)Oc1cccc(NS(=O)(=O)c2ccc3c(c2)OCC[C@H]3c2ccc(C(F)(F)F)cc2-c2ccnn2C)n1`, the IC50 is over 10 µM.

Turning to `Cn1nccc1-c1cc(C(F)(F)F)ccc1[C@@H]1CCOc2cc(S(=O)(=O)Nc3ncccc3F)ccc21`, the IC50 is over 10 µM.

On to `O=S(=O)(Nc1ccncn1)c1ccc2c(c1)OCC[C@H]2c1ccc(C(F)(F)F)cc1-c1ccc(F)cc1`, for which the IC50 was over 10 µM.

On to `Cc1cccc(NS(=O)(=O)c2ccc3c(c2)OCC[C@H]3c2ccc(C(F)(F)F)cc2-c2ccnn2C)n1`, for which the IC50 was over 10 µM.

Regarding `Cn1nccc1-c1cc(C(F)(F)F)ccc1[C@@H]1CCOc2cc(S(=O)(=O)Nc3cc(F)ccn3)ccc21`, the IC50 is over 10 µM.

In the case of `Cn1nccc1-c1cc(C(F)(F)F)ccc1[C@@H]1CCOc2cc(S(=O)(=O)Nc3ccncn3)ccc21`, the IC50 was over 10 µM.

For the compound `CC(C)Oc1ccc([C@H]2CCOc3cc(S(=O)(=O)Nc4cccc(F)n4)ccc32)c(-c2ccnn2C)c1`, the IC50 is over 10 µM.
